The source of these data is patent publication US20240279249A1, “Compound, Coating Composition Comprising Same, Organic Light-Emitting Device Using Same, and Manufacturing Method Therefor” (LG Chem, Ltd., priority 2021, published 2024).

Where two headings read alike, the source gives them in different places.

Data set [1] is described as follows: Film retention rate / solvent resistance: UV-vis absorption of heat-treated film after immersion in cyclohexanone. To be noted: film from 4 wt % solution in cyclohexanone, 100 nm on quartz, heat-treated 190° C. to 200° C. in nitrogen 30 minutes, immersed in cyclohexanone 10 minutes; higher absorbance = more film retained. Type of data set: physicochemical. As for the experimental part:
Thereafter, after the substrate was heat-treated at a temperature of 190° C. to 200° C. in a nitrogen atmosphere for 30 minutes, the UV-vis absorption spectrum was measured. Subsequently, the same sample was immersed in cyclohexanone for 10 minutes and remove, the solvent was dried from the sample, and then the UV-vis absorption spectrum was also measured.
In the process of manufacturing the device, the film is retained while being cured during the heat treatment. The higher absorbance means that a relatively more residue remains on the film.

Data set [2] can be described thus: Solubility at 5 wt % relative to each solvent. An excerpt:
In a solution process organic light emitting device, when an ink solvent is selected for the process, the ink solvent needs to dissolve both a host and a dopant.

Setting [3] is: 5 wt % relative to solvent, Acetone.
The mark [4] stands for this setting: 5 wt % relative to solvent, Dichloromethane.
Setting [5] is: 5 wt % relative to solvent, Toluene.

On to `Fc1c(F)c(-c2c(F)c(F)c([B-](c3c(F)c(F)c(C(F)(F)F)c(F)c3F)(c3c(F)c(F)c(C(F)(F)F)c(F)c3F)c3c(F)c(F)c(C(F)(F)F)c(F)c3F)c(F)c2F)c(F)c(F)c1-c1ccc2c(c1)CC2` [Compound 8], for which the “Absorbance @ 350 nm” value in data set [1] is 0.546.

With `C=Cc1ccc(-c2c(F)c(F)c(-c3c(F)c(F)c([B-](c4c(F)c(F)c(C(F)(F)F)c(F)c4F)(c4c(F)c(F)c(C(F)(F)F)c(F)c4F)c4c(F)c(F)c(C(F)(F)F)c(F)c4F)c(F)c3F)c(F)c2F)c2ccccc12` [Compound 7], the “Absorbance @ 350 nm” value in data set [1] was 0.603.

With `Cc1ccc([I+]c2ccc(C(C)C)cc2)cc1.Fc1c(F)c([B-](c2c(F)c(F)c(C(F)(F)F)c(F)c2F)(c2c(F)c(F)c(C(F)(F)F)c(F)c2F)c2c(F)c(F)c(C(F)(F)F)c(F)c2F)c(F)c(F)c1-c1ccc2c(c1)CC2` [Comparative Compound 3, (4-isopropylphenyl) (p-tolyl)iodonium(4-(bicyclo[4.2.0]octa-1,3,5-trien-3-yl)-2,3,5,6-tetrfluorophenyl)tris(2,3,5,6-tetrafluoro-4-(trifluoromethyl)phenyl)borate, reference compound], the “Absorbance @ 350 nm” value in data set [1] is 0.392.

Turning to “(4-isopropylphenyl) (p-tolyl)iodonium (2,3,5,6-tetrafluoro-4′-vinyl-[1,1′-biphenyl]-4-yl)tris(2,3,5,6-tetrafluoro-4-(trifluoromethyl)phenyl)borate [Compound 1]”, the “Absorbance @ 350 nm” value in data set [1] turned out to be 0.802.

As for `C=Cc1ccc(-c2cc(-c3ccc(C=C)cc3)cc(-c3c(F)c(F)c(-c4c(F)c(F)c([B-](c5c(F)c(F)c(C(F)(F)F)c(F)c5F)(c5c(F)c(F)c(C(F)(F)F)c(F)c5F)c5c(F)c(F)c(C(F)(F)F)c(F)c5F)c(F)c4F)c(F)c3F)c2)cc1.Cc1ccc([I+]c2ccc(C(C)C)cc2)cc1` [Compound 3, (4-isopropylphenyl) (p-tolyl)iodonium (2″,2′″,3″,13′″,5″,5′″,6″,6′″-octafluoro-4-vinyl-5′-(4-vinylphenyl)-[1,1′:3′,1″:4″,1′″-quarterphenyl]-4′″-yl)tris(2,3,5,6-tetrafluoro-4-(trifluoromethyl)phenyl)borate], in data set [2], the “Solubility in Acetone” value is “Dissolved”, the “Solubility in Dichloromethane” value was “Dissolved” and the “Solubility in Toluene” value was “Dissolved”. Further, the “Absorbance @ 350 nm” value in data set [1] was 0.813.

Turning to `C=Cc1ccc([B-](c2c(F)c(F)c(C(F)(F)F)c(F)c2F)(c2c(F)c(F)c(C(F)(F)F)c(F)c2F)c2c(F)c(F)c(C(F)(F)F)c(F)c2F)cc1.Cc1ccc([I+]c2ccc(C(C)C)cc2)cc1` [Comparative Compound 1, (4-isopropylphenyl) (p-tolyl) iodonium tris(2,3,5,6-tetrafluoro-4-(trifluoromethyl)phenyl) (4-vinylphenyl)borate, reference compound], the “Absorbance @ 350 nm” value in data set [1] was found to be 0.483.

`C=Cc1cc(C=C)cc(-c2c(F)c(F)c(-c3c(F)c(F)c([B-](c4c(F)c(F)c(C(F)(F)F)c(F)c4F)(c4c(F)c(F)c(C(F)(F)F)c(F)c4F)c4c(F)c(F)c(C(F)(F)F)c(F)c4F)c(F)c3F)c(F)c2F)c1` [Compound 5]: the “Solubility in Acetone” value in data set [2] (setting [3]) was “Dissolved”. Moreover, the “Solubility in Dichloromethane” value in data set [2] (setting [4]) is given as “Dissolved”. Further, the “Solubility in Toluene” value in data set [2] (setting [5]) is given as “Dissolved”. The “Absorbance @ 350 nm” value in data set [1] is given as 0.801.

`C=Cc1ccc(-c2c(F)c(F)c([B-](c3c(F)c(F)c(-c4ccc(C=C)cc4)c(F)c3F)(c3c(F)c(F)c(-c4ccc(C=C)cc4)c(F)c3F)c3c(F)c(F)c(-c4ccc(C=C)cc4)c(F)c3F)c(F)c2F)cc1.Cc1ccc([I+]c2ccc(C(C)C)cc2)cc1` [Comparative Compound 4, (4-isopropylphenyl) (p-tolyl)iodonium tetrakis(2,3,5,6-tetrafluoro-4′-vinyl-[1,1′-biphenyl]-4-yl) borate, reference compound]: in data set [2] (setting [3]), the “Solubility in Acetone” value is reported as “Dissolved”. The “Solubility in Dichloromethane” value in data set [2] (setting [4]) is “Dissolved”. Further, the “Solubility in Toluene” value in data set [2] (setting [5]) is on record as “Insoluble”. The “Absorbance @ 350 nm” value in data set [1] amounted to 0.467.

Regarding `C=Cc1c(F)c(F)c([B-](c2c(F)c(F)c(C(F)(F)F)c(F)c2F)(c2c(F)c(F)c(C(F)(F)F)c(F)c2F)c2c(F)c(F)c(C(F)(F)F)c(F)c2F)c(F)c1F.Cc1ccc([I+]c2ccc(C(C)C)cc2)cc1` [Comparative Compound 2, (4-isopropylphenyl) (p-tolyl)iodonium tris(2,3,5,6-tetrafluoro-4-(trifluoromethyl)phenyl) (2,3,5,6-tetrafluoro-4-vinylphenyl) borate, reference compound], the “Absorbance @ 350 nm” value in data set [1] amounted to 0.526.
